According to patent US12612412B2, “Antiviral heterocyclic compounds” (Enanta Pharmaceuticals, Inc., priority 2021, dated 2026):

tested on: genotype A, "Long" strain RSV; test: RSV-A assay (CPE protection in Hep-2 cells, ATPlite readout); format: cell-based, Human respiratory syncytial virus (HRSV); settings: human respiratory syncytial virus, RSV-A Long strain, MOI 0.1, CPE protection, read-out: Human RSV-A (“Long”) EC50
In short: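 ATPlite luminescence (cellular ATP) served as the measure of cell health after 5 days of infection. Hep-2 cells at 8,000 per well received duplicate 2-fold compound dilutions plus virus at MOI 0.1, and EC50 was calculated from CPE protection.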

Structure (SMILES) | EC50 [nM]
COc1cc(C(=O)NC[C@](O)(c2cc3c(c(N4CCCC(F)(F)C4)n2)OC[C@]3(C)C(N)=O)C(F)(F)F)cc2cn(C3CC3)nc12 [Example 1271] | < 200
COc1cc(C(=O)NC[C@@](O)(c2cc3c(c(-c4ccc(C5CC5)cc4)n2)OC[C@]3(C)C(N)=O)C(F)(F)F)cc2cn(C3CC3)nc12 [Example 892] | > 200
COc1cc(C(=O)NC[C@](O)(c2cc3c(c(-c4cc(Cl)c(F)cc4F)n2)OC[C@]3(C)C(N)=O)C2(F)CC2)cc2cn(C(F)F)nc12 [Example 1112] | < 200

same assay, conditions: human respiratory syncytial virus, genotype A “Long” strain RSV, MOI 0.1, CPE protection, read-out: Human RSV-A (“Long”)

Structure (SMILES) | EC50 [nM]
Cn1nc2ccccc2c1C(=O)NC[C@](O)(c1cc2c(c(-c3ccc(F)cc3)n1)OC[C@]2(C)C(N)=O)C(F)(F)F [Example 424] | > 200
Cn1c(C(=O)NC[C@](O)(c2cc3c(c(-c4ccc(F)cc4)n2)OC[C@]3(C)C(N)=O)C(F)(F)F)cc2ccccc21 [Example 401] | > 200
COc1cc2ccc(C(=O)NC[C@](O)(c3cc4c(c(-c5ccc(F)cc5)n3)OC[C@]4(C)C(N)=O)C(F)(F)F)cc2cc1OC [Example 440] | < 200
COc1cc(C(=O)NC[C@](O)(c2cc3c(c(-c4ccc(F)cc4)n2)OC[C@]3(C)C(N)=O)C(F)(F)F)ccc1OC[C@H](C)O [Example 133] | < 200
COc1cccc(-c2cc(C(=O)NC[C@](O)(c3cc4c(c(-c5ccc(F)cc5)n3)OC[C@]4(C)C(N)=O)C(F)(F)F)n[nH]2)c1 [Example 208] | > 200
COc1cccc(C(=O)NC[C@](O)(c2cc3c(c(-c4ccc(F)cc4)n2)OC[C@]3(C)C(N)=O)C(F)(F)F)c1F [Example 427] | > 200
Cc1cnc2c(NC(=O)NC34CC(O)(C3)C4)cc(C(=O)NC[C@](O)(c3cc4c(c(-c5ccc(F)cc5)n3)OC[C@]4(C)C(N)=O)C(F)(F)F)cc2c1 [Example 227] | < 200
C[C@]1(C(N)=O)COc2c1cc([C@@](O)(CNC(=O)c1ccc3cc[nH]c3c1)C(F)(F)F)nc2-c1ccc(F)cc1 [Example 196] | > 200
COc1cc(C(=O)NC[C@](O)(c2cc3c(c(-c4ccc(F)cc4)n2)OC[C@]3(C)C(N)=O)C(F)(F)F)cc2cc(C)c(C(=O)O)nc12 [Example 5] | > 200

tested on: HMPV clinical isolate TN/1501/A1; test: HMPV antiviral assay Method-B (clinical isolate TN/1501/A1 in LLC-MK2 cells, ATP-Lite readout); format: cell-based, Human metapneumovirus (HMPV); settings: human metapneumovirus, LLC-MK2, 144 h, hMPV WT1501 (clinical isolate TN/1501/A1), 6 days
Method: In vitro HMPV antiviral activity was evaluated using the clinical isolate TN/1501/A1 and LLC-MK2 cells (ATCC #CCL-7), an immortalized kidney epithelial cell line from Macaca mulatta. Compounds were resuspended in dimethyl sulfoxide (DMSO) at 10 mM and added to a 384-well source plate. The compounds were diluted and transferred onto 384-well assay plates using the Echo-650 automated liquid handling system (Beckman Coulter, Indiana). The test compounds were assessed in duplicate at a top concentration of 10 μM followed by 3-fold serial dilutions to give a total of 10 concentration points. DMSO control wells were also included on the assay plates and were either infected or not, acting as positive and negative controls. TN/1501/A1 virus infections were performed in-suspension with LLC-MK2 cells. The cells were washed twice with PBS and removed from the cell-culture flask with 0.25% trypsin-EDTA (Thermo Fisher Scientific, MA). The trypsin-EDTA was inactivated by resuspending in 2% fetal bovine serum (FBS) and OptiMEM (ThermoFisher Scientific, MA) containing 1% penicillin-streptomycin. Cells were pelleted by centrifuging for 5 minutes at 800 rpm, the supernatant was removed, and cells were suspended in PBS plus 100 μg/mL CaCl2). This step was performed twice. Cells were then resuspended in serum-free (SF)-OptiMEM containing 4 μg/mL TPCK-Trypsin (Sigma Aldrich, MO), 1% penicillin-streptomycin (ThermoFisher Scientific, MA) and 100 μg/mL CaCl2). Cells were counted and seeded at a density of 5,000 cells/well, 12.5 μL/well. Virus infections were done at a multiplicity of infection (MOI) of 0.014 with 12.5 μL added per well. SF-OptiMEM, 12.5 μL/well, was added to the appropriate wells to serve as a virus-free negative control for the assay. The final concentration of TPCK-trypsin was 2 μg/mL. Plates were incubated at 37° C., 5% CO2 for 6 days. After 6 days incubation, 12.5 μL of ATP-Lite (PerkinElmer, MA) was added to each well and the raw luminescence values were determined using the Envision 2104 (Perkin Elmer, MA). The average of the raw luminescence values for the cells and virus only positive control wells was subtracted from all conditions tested and the percent cell health was determined by dividing these values by the average of the cells only negative control wells. EC50 values were then calculated by non-linear regression using a four-parameter curve logistic equation. The curve fit model employed was XLFit Dose Response One Site Model 200: y=(A+(B/(1+((x/C)^D)))), where A is the minimum y value, B is the maximum y value, C is the log EC50 value, and D is the slope factor. […] EC50 ranges are as follows: A<0.5 μM; B>0.5 μM.

Structure (SMILES) | EC50 [nM]
COc1cc(C(=O)NC[C@](O)(c2cc3c(c(-c4cc(Br)c(F)cc4F)n2)OC[C@]3(C)C(N)=O)C(F)(F)F)cc2cn(C3CC3)nc12 [Example 958] | < 500
COc1cc(F)c(-c2nc([C@@](O)(CNC(=O)c3cc(OC)c4nn(C5CC5)cc4c3)C(F)(F)F)cc3c2OC[C@]3(C)C(N)=O)c(F)c1 [Example 962] | < 500
C[C@]1(C(N)=O)COc2c1cc([C@@](O)(CNC(=O)c1ccc3nn(C4CC4)cc3c1)C1CC1)nc2-c1cc(Cl)c(F)cc1F [Example 690] | < 500
COc1cc(C(=O)NC[C@](O)(c2cc3c(c(-c4ccc(F)cc4)n2)OC[C@]3(C)C(N)=O)C(F)(F)F)cc2cc(Br)c(C)nc12 [Example 769] | < 500
COc1cc(C(=O)NC[C@@](O)(c2cc3c(c(-c4cc(Br)c(F)cc4F)n2)OC[C@]3(C)C(N)=O)C(F)(F)F)cc2cn(C3CC3)nc12 [Example 957] | < 500
COc1cc(C(=O)NC[C@](O)(c2cc3c(c(-c4csc5c(F)cccc45)n2)OC[C@]3(C)C(N)=O)C2(F)CC2)cc2cn(C3CC3)nc12 [Example 632] | < 500
Cc1cnc2c(Cl)cc(C(=O)NC[C@](O)(c3cc4c(c(-c5cc(Cl)c(F)c(Cl)c5)n3)OC[C@]4(C)C(N)=O)C3CC3)cc2c1 [Example 682] | > 500
COc1cc(C(=O)NC[C@](O)(c2cc3c(c(-c4cc(Cl)c(F)c(Cl)c4)n2)OC[C@]3(C)C(N)=O)C2CC2)cc2cc(Br)cnc12 [Example 679] | > 500
C[C@]1(C(N)=O)COc2c1cc([C@@](O)(CNC(=O)c1cc(Cl)c3nn(C4CC4)cc3c1)C1CC1)nc2-c1cc(Cl)c(F)c(Cl)c1 [Example 680] | > 500
COc1cc(C(=O)NC[C@](O)(c2cc3c(c(-c4cc(Cl)c(F)c(Cl)c4)n2)OC[C@]3(C)C(N)=O)C2CC2)cc2cn(C(F)F)nc12 [Example 677] | > 500
COc1cc(C(=O)NC[C@](O)(c2nc(-c3ccc4c(c3)OC(F)(F)O4)c3c(c2F)[C@](C)(C(N)=O)CO3)C2CC2)cc2cn(C3(F)CC3)nc12 [Example 865] | > 500
COc1cc(C(=O)NC[C@](O)(c2cc3c(c(-c4cccc(Br)c4F)n2)OC[C@]3(C)C(N)=O)C(F)(F)F)cc2cn(C3CC3)nc12 [Example 960] | < 500
COc1cc(C(=O)NC[C@](O)(c2nc(-c3ccc4c(c3)OC(F)(F)O4)c3c(c2F)[C@](C)(C(N)=O)CO3)C2CC2)cc2cc(Br)cnc12 [Example 870] | > 500
COc1cc(C(=O)NC[C@@](O)(c2cc3c(c(-c4cccc(Br)c4F)n2)OC[C@]3(C)C(N)=O)C(F)(F)F)cc2cn(C3CC3)nc12 [Example 959] | > 500
COc1cc(C(=O)NC[C@](O)(c2cc3c(c(-c4ccc(F)c(Br)c4F)n2)OC[C@]3(C)C(N)=O)C2CC2)cc2cc(Br)cnc12 [Example 803] | < 500
C[C@]1(C(N)=O)COc2c1cc([C@@](O)(CNC(=O)c1cc(Cl)c3nn(C4CC4)cc3c1)C1(F)CC1)nc2-c1csc2c(F)cccc12 [Example 631] | < 500
COc1cc(C(=O)NC[C@](O)(c2cc3c(c(-c4c(F)ccc(F)c4F)n2)OC[C@]3(C)C(N)=O)C(F)(F)F)cc2cn(C3CC3)nc12 [Example 964] | < 500
COc1cc(C(=O)NC[C@](O)(c2cc3c(c(-c4cc(Cl)c(F)c(Cl)c4)n2)OC[C@]3(C)C(N)=O)C2CC2)cc2cc(Cl)c(C)nc12 [Example 681] | > 500
COc1cc(C(=O)NC[C@](O)(c2cc3c(c(-c4csc5c(F)cccc45)n2)OC[C@]3(C)C(N)=O)C2(F)CC2)cc2cn(C(F)F)nc12 [Example 630] | < 500
C[C@@]1(C(N)=O)COc2c(-c3ccc4c(c3)OC(F)(F)O4)nc([C@@](O)(CNC(=O)c3cc(Cl)c4nn(C5CC5)cc4c3)C3CC3)c(F)c21 [Example 864] | > 500
COc1cc(C(=O)NC[C@](O)(c2cc3c(c(-c4cc(Cl)c(F)c(Cl)c4)n2)OC[C@]3(C)C(N)=O)C2CC2)cc2cn(C3CC3)nc12 [Example 676] | < 500
COc1cc(C(=O)NC[C@](O)(c2nc(-c3ccc4c(c3)OC(F)(F)O4)c3c(c2F)[C@@](C)(C(N)=O)CO3)C2CC2)cc2cc(Br)cnc12 [Example 869] | < 500
COc1cc(C(=O)NC[C@](O)(c2nc(-c3ccc4c(c3)OC(F)(F)O4)c3c(c2F)[C@](C)(C(N)=O)CO3)C2CC2)cc2cc(Cl)c(C)nc12 [Example 867] | > 500
COc1cc(C(=O)NC[C@](O)(c2nc(-c3ccc4c(c3)OC(F)(F)O4)c3c(c2F)[C@](C)(C(N)=O)CO3)C2CC2)cc2cn(C3CC3)nc12 [Example 863] | > 500
COc1cc(C(=O)NC[C@](O)(c2cc3c(c(-c4c(F)ccc(Cl)c4F)n2)OC[C@]3(C)C(N)=O)C(F)(F)F)cc2cn(C3CC3)nc12 [Example 963] | < 500
COc1cc(C(=O)NC[C@](O)(c2nc(-c3ccc4c(c3)OC(F)(F)O4)c3c(c2F)[C@](C)(C(N)=O)CO3)C2CC2)cc2cn(C(F)F)nc12 [Example 866] | > 500
COc1cc(C(=O)NC[C@](O)(c2cc3c(c(-c4ccc(F)c(Br)c4F)n2)OC[C@]3(C)C(N)=O)C2CC2)cc2cc(Cl)c(C)nc12 [Example 804] | < 500
COc1cc(C(=O)NC[C@](O)(c2cc3c(c(-c4ccc(F)cc4)n2)OC[C@]3(C)C(N)=O)C2CC2)cc2cc(Br)c(C)nc12 [Example 771] | < 500
